2 molecules from US20230278954A1, “BRANCHED LIPID COMPOUDS” (priority 2020, published 2023) can be followed below.

Series [1] deals with T1, mouse TLR2 (Mus musculus, UniProt Q9QUN7).
T1 construct: expressed in transfected cells; host or cells: HEK-Blue mTLR2 cells
The experiment in a line: HEK-Blue mTLR2 dose response (SEAP reporter). The format is cell-based. How it is done:
Toll-Like Receptor (TLR) stimulation is tested by assessing NF-KB activation in the TLR expressing cell lines. HEK-Blue h/mTLR2 cells have been stably transfected with human or mouse TLR2 and CD14. The activity of the test articles are tested on human and mouse TLR2, as potential agonists. The test articles are evaluated at seven concentrations and compared to control ligands (see list below). These steps are performed in triplicate.
A 5 µg/mL working stock was then prepared for each compound from the 20 µg/mL dilution in sterile PBS. Starting from the 5 µg/mL working stock, a series of six 1:4 serial dilutions were made by mixing 100 µL of the previous highest dilution with 300 µL sterile PBS.
The secreted embryonic alkaline phosphatase (SEAP) reporter is under the control of a promoter inducible by the transcription factor NF-κB. This reporter gene allows the monitoring of signaling through the TLR, based on the activation of NF-κB. In a 96-well plate (200 µL total volume) containing the appropriate cells (50,000 - 75,000 cells/well), 20 µL of the test article or the positive control ligand (HKLC) is added to the wells. The media added to the wells is designed for the detection of NF-κB induced SEAP expression. After a 16-24-hour incubation the optical density (OD) is read at 650 nm on a Molecular Devices SpectraMax 340PC absorbance detector.

Series [2] can be described thus: Stability IV: formulation pH during accelerated storage. It is filed as physicochemical. Here is the method: Each compound was formulated in 0.9% w/w saline with addition of 0.1% w/w EDTA at about pH 5. The formulations were stored in the dark under accelerated conditions (40° C./75% RH) and reference formulations were stored at -80° C. At days 0, 9 and 28, samples were analysed by UHPLC and pH was measured.
The remaining ~ 1 mL of solution in the clear glass HPLC vials was stored at 40° C./75% RH and was used to measure pH at each time point.
The formulation pH data recorded at each time point are compiled in Table 19. There was a general trend for the pH to increase with time but the effect was not pronounced.

For series [3], the target named is T2, human TLR2 (Homo sapiens, UniProt O60603).
T2 construct: expressed in transfected cells; host or cells: HEK-Blue hTLR2 cells
T2 sequence (O60603 21-784): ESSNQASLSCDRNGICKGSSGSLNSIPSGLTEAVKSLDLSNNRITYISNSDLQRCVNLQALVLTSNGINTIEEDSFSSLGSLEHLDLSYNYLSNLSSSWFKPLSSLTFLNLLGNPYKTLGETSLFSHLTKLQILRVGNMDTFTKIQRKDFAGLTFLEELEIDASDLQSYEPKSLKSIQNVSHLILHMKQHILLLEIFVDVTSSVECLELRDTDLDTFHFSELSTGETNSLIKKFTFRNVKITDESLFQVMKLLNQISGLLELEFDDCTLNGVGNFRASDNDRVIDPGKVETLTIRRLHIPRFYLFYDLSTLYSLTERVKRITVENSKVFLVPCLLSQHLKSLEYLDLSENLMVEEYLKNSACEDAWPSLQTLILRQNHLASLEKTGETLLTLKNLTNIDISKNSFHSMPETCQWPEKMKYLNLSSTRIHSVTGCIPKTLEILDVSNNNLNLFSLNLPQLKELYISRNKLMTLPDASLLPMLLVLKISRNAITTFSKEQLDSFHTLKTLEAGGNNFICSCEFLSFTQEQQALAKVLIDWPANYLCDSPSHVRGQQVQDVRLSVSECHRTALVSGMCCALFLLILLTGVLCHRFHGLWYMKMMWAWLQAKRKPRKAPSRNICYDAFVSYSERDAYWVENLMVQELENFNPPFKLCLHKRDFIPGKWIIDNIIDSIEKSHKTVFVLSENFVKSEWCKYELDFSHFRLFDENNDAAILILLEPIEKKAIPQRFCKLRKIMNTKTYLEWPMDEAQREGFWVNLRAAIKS
T2 sequence (Q9Y2C9 32-796 partner): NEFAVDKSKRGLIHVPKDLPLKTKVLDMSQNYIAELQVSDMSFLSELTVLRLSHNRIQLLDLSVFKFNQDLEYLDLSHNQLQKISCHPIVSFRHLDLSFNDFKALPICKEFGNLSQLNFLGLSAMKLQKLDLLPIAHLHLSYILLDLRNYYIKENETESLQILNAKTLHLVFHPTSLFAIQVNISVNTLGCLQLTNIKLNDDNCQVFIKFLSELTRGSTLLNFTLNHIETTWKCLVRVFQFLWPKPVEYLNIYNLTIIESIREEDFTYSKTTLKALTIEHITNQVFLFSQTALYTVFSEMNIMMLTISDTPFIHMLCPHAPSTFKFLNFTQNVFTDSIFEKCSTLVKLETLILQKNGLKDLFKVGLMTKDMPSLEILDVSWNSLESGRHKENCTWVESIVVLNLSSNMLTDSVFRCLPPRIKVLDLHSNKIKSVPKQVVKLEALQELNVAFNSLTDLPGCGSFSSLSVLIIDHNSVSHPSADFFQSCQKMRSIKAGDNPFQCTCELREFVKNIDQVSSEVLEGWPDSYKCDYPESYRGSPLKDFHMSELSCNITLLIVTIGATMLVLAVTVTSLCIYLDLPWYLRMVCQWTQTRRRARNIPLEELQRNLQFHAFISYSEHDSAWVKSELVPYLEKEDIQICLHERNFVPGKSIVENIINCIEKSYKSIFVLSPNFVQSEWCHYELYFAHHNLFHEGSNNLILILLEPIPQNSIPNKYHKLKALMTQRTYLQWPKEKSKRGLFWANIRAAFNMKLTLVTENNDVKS
The experiment in a line: Activation of human TLR2 IV: HEK-BLUE-hTLR2 assay. It is filed as cell-based. The following applies: HEK-BLUE-hTLR2 cells, FIG. 4. Here is the method:
HEK-BLUE-hTLR2 cells are designed for studying the stimulation of human TLR2 (hTLR2) by monitoring the activation of NF-kB. HEK-BLUE-hTLR2 cells are obtained by co-transfection of the hTLR2 and SEAP (secreted embryonic alkaline phosphatase) reporter genes into HEK293 cells. Stimulation with a TLR2 ligand activates NF-kB which induces the production of SEAP. HEK-BLUE-hTLR2 cells were purchased from InvivoGen (San Diego, CA, USA). […] xii) Add immediately […] of the cell suspension per well of the plate which contains the solution of the compounds. The plate is then returned to the incubator at 37° C. for 16 hr and was read at 620 nm by using an ELISA reader.

Series [4] in a line: Stability III: accelerated aging at 40° C., 3 or 6 weeks, HPLC recovery. The format is physicochemical. How it is done: Recovery of the target compound was assessed by HPLC, and the values as a percentage of the reference sample are reported in Table 14 and in FIG. 5.

T1 sequence (Q9QUN7 25-784): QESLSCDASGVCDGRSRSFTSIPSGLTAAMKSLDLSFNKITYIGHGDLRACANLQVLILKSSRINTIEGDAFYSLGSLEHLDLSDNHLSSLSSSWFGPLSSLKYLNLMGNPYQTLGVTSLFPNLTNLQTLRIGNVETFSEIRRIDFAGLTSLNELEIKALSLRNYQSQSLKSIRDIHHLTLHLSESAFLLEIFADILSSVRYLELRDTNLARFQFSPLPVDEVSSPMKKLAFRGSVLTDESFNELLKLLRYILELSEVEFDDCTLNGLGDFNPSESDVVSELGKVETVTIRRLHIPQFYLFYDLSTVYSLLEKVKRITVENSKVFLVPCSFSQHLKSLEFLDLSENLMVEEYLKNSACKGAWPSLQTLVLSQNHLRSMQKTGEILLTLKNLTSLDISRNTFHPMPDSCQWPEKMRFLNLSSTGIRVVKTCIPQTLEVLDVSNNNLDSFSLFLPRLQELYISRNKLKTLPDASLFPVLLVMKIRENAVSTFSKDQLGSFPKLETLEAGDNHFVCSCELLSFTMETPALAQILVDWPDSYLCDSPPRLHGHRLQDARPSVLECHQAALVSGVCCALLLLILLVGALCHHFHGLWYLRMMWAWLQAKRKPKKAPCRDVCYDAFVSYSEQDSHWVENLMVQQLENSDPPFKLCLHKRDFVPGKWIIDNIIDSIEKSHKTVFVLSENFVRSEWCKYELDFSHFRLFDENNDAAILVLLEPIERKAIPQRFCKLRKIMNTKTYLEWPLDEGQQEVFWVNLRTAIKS
T1 sequence (Q9Y2C9 32-796 partner): as the sequence (Q9Y2C9 32-796 partner) above

Regarding `CCCCCCCCCCCCCCC(C)C(=O)OC[C@H](CSC[C@H](N)C(=O)N[C@@H](CO)C(=O)NCCOCCOCCOCCOCCOCCOCCOCCOCCOCCOCCOCCOCCOCCOCCOCCOCCOCCOCCOCCOCCOCCOCCOCCOCCOCCOCCOCCOCCC(=O)NCC(N)=O)OC(=O)C(C)CCCCCCCCCCCCCC` (stereo partly shown) [Compound B4], in series [1], the “stimulatory / agonist activity for mTLR2 (in words)” value is reported as “stimulatory activity”. For the same molecule, the pH of formulation in series [2] (0-days) was found to be 5.6; in series [2] (9-days, 40° C./75% RH) it was 5.7; in series [2] (28-days, 40° C./75% RH), 5.7.
With `CCCCCCCCCCCCCCC(C)C(=O)OCC[C@H](CSC[C@H](N)C(=O)N[C@@H](CO)C(=O)NCCOCCOCCOCCOCCOCCOCCOCCOCCOCCOCCOCCOCCOCCOCCOCCOCCOCCOCCOCCOCCOCCOCCOCCOCCOCCOCCOCCOCCC(=O)NCC(N)=O)OC(=O)C(C)CCCCCCCCCCCCCC` (stereo partly shown) [Compound B12], in series [1], the “stimulatory / agonist activity for mTLR2 (in words)” value is on record as “stimulatory activity”. Besides, the “activity at TLR2 (in words)” value in series [3] is listed as “significant activity”. Besides, the “stability under accelerated storage conditions (in words)” value in series [4] is on record as “excellent stabilities”. Further, the pH of formulation in series [2] (0-days) is listed as 5.6; in series [2] (9-days, 40° C./75% RH), 5.7; in series [2] (28-days, 40° C./75% RH), 5.7.
